# Key:
# Panc1 tumor xenograft = test: Panc1 luciferase xenograft in immunodeficient nude (nu/nu) mice: caliper tumor volume, luminescence, body weight; type: in vivo, mouse; details: for tumor growth in treated mice: 20 mg/Kg in corn oil, intraperitoneally every two days, vs vehicle
# Procedure: To evaluate the in vivo therapeutic effects of compound IPI/01.LF studies on immunodeficient nude (nu/nu) mouse models xenografted with the human pancreatic tumor cells Panc1 were performed.
# Panc1 cells were stably transduced with 5 MOI of a lentivirus expressing the luciferase gene (pLenti CMV Puro LUC (w168-1)). The lentiviral vector was purchased from Addgene, Watertown, MA 02472 USA (plasmid #17477); Campeau E, et al A versatile viral system for expression and depletion of proteins in mammalian cells PLoS One (2009) 4(8):e6529.
# Stably transduced Panc1 cells were subcutaneously implanted in immunocompromised Balb/C nude athymic mice. When the tumors reached the volume of 200 mm^3, mice were treated with either 20 mg/kg of compound IPI/01.LF dissolved in corn oil or with corn oil (vehicle) alone and injected intraperitoneally every two days. Tumor growth was monitored with a caliper every other day. Data are expressed as the mean±SD of three independent experiments, each performed in triplicate.
# Since the grafted Panc1 tumor cells express the ectopic luciferase reporter gene, tumor luminescence was used to monitor the tumor growth. Luminescence was measured using IVIS Lumina III In Vivo Imaging System (PerkinElmer).
# Mice were intraperitoneally injected with luciferin (RediJect D-Luciferin Bioluminescent Substrate, PerkinElmer) and analyzed by photon emission (bioluminescence).
# L of luciferin (15 mg/mL stock)/gram of mouse body weight were injected in the lower left abdominal quadrant of xenografted Balb/C mice with a 25 gauge needle. After 10 minutes, animals were anesthetized with a mixture of oxygen gas and vaporized isoflurane. Once the animals were fully anesthetized, they were positioned within the animal imaging cassette for image acquisition. Data were analyzed utilizing the LivingImage software. Image acquisition was performed at the beginning (T=0) and at the end (T=17) of the experiment and body weights (g) of mice at time of sacrifice were determined.
# LDHA enzyme = test: LDHA enzymatic activity assay: rate of NADH consumption after pyruvate addition, spectrophotometry at 340 nm, in Med1-MB cell supernatant; type: biochemical, mouse; set-up: key to LDH Inhibition (relative inhibitory activity): *** strong; ** middle; * weak; details: dose of 100 μM
# Procedure: To evaluate whether the observed anti-proliferative effect of IPI/01.LF and derivatives was a specific consequence of the inhibitory activity on the LDHA enzyme, the inventor performed enzymatic activity assays measuring the rate of NADH consumption following the addition of pyruvate by spectrophotometry at […], as previously described [Miskimins W K, Ahn H J, Kim J Y, Ryu S, Jung Y S, Choi J Y. Synergistic anti-cancer effect of phenformin and oxamate. PLoS One. 2014; 9(1):e85576.].
# 1×10^5 Med1-MB cells were harvested, suspended in 0.1M KH2PO4 (pH 7.2), 2 mM EDTA and 1 mM dithiothreitol (DTT), sonicated in 300 μL assay buffer (50 mmol/L potassium phosphate, pH 7.4), and centrifuged at 10,000 g for 10 minutes at 4° C. The supernatant was added to 50 mM potassium phosphate (pH 7.4), 2 mM pyruvate, and 20 µM NADH. Absorbance was measured over 10 minutes at 340 nm using a spectrophotometer.
# Panc1 cells = test: Panc1 pancreatic tumor cell proliferation, Trypan Blue exclusion; type: cell-based, human
# Excerpt: The inventor tested compound #1-IPI/01.LF on the proliferation of human pancreatic ductal adenocarcinoma (PDAC) Panc1 cells (American Tissue Cell Culture (ATCC, Manassas, VA, USA); product code: ATCC® CRL-1469™) a human tumor cell line showing a high glycolytic rate (Liu L, Gong L, Zhang Y, Li N. Glycolysis in Panc-1 human pancreatic cancer cells is inhibited by everolimus Experimental and therapeutic medicine (2013) 5: 338-342).
# PANC-1 cells were maintained in DMEM supplemented with 10% FBS and 100 units of penicillin/streptomycin. After 72 h, cell proliferation was assayed by Trypan Blue exclusion method. IC50 value was determined by generating a dose-response curves by non-linear regression. Data are expressed as the mean±SD of three independent experiments, each performed in triplicate.
# Med1-MB cells = test: Med1-MB tumor cell proliferation, Trypan Blue exclusion count; type: cell-based, mouse; set-up: key to Growth Inhibition (relative inhibitory activity): *** strong; ** middle; * weak; details: for Growth Inhibition (relative inhibitory activity): 72 h treatment
# Procedure: Med1-MB cells (a mouse medulloblastoma cell line kindly provided by Dr Yoon-Jae Cho, Stanford, CA USA and disclosed in Hayden Gephart et al. Journal of Neuro-Oncology (2013) volume 115, pages 161-168) were maintained in DMEM supplemented with 10% FBS and 100 units of penicillin/streptomycin.
# Med1-MB cells were cultured in Dulbecco's modified Eagle medium (DMEM) supplemented with 10% FBS, 1 mM penicillin-streptomycin and 1 mM glutamine in a humidified incubator at 37° C. and 5% CO2. […] After 72 hours, cells were trypsinized and counted by trypan blue exclusion method.
# To evaluate the effect on tumor growth of compound IPI/01.LF, and derivatives, 1×10^4 Med1-MB cells were seeded in 12-well plate and incubated overnight at 37° C. in a humidified incubator. After 24 h, cells were treated with increasing concentrations of compounds for 72 h. At the end of the experiment, cell proliferation was assayed by Trypan Blue exclusion method. IC50 values were determined by generating a dose-response curves by non-linear regression. Data are expressed as the mean±SD of three independent experiments, each performed in triplicate.
compound,measurement,setting,value
"O=C(Nc1ccccc1)c1c[nH]c(=O)n(Cc2ccccc2F)c1=O [#1, 2,4-dioxo-N-phenyl-3-(2-fluorobenzyl)-1,2,3,4-tetrahydropyrimidine-5-carboxamide]",tumor growth in treated mice,Panc1 tumor xenograft,did not grow at all
same,tumor growth in treated mice,Panc1 tumor xenograft; listed as IPI/01.LF,significantly lower
same,weight of mice,"Panc1 tumor xenograft; 20 mg/Kg, T=0 to T=17",unchanged
same,tumor luminescent light signal over time,"Panc1 tumor xenograft; 20 mg/Kg, T=0 vs T=17 days, IVIS Lumina III",significant regression over time
same,tumor mass smaller in treated mice compared to controls at end of experiment,"Panc1 tumor xenograft; 20 mg/Kg, end of experiment",2.5 fold
same,mean volume of tumors at end of treatment compared to controls,"Panc1 tumor xenograft; 20 mg/kg, end of treatment",significantly reduced
same,LDH Inhibition (relative inhibitory activity),LDHA enzyme,***
same,inhibitory effect on LDHA enzymatic activity,LDHA enzyme,marked inhibitory effect
same,IC50,"Panc1 cells; Homo sapiens, PANC-1, Panc1 cells, 72 h, non-linear regression",~23 µM
same,"IC50 range, cell proliferation",Panc1 cells; Panc1 cells,within the micromolar range
same,concentration times lower than oxamate for comparable ability to reduce tumor growth,"Panc1 cells; in vitro, vs oxamate",> 700 times
same,Growth Inhibition (relative inhibitory activity),Med1-MB cells,***
same,IC50,"Med1-MB cells; Mus musculus, 72 h, non-linear regression",~29 µM
same,values times lower than those obtained with oxamate,Med1-MB cells; vs oxamate,approximately 700 times
"O=C(Nc1cccc(Cl)c1)c1c[nH]c(=O)n(Cc2ccccc2)c1=O [#2, 2,4-Dioxo-3-benzyl-N-(3-chlorophenyl)-1,2,3,4-tetrahydropyrimidine-5-carboxamide]",LDH Inhibition (relative inhibitory activity),LDHA enzyme,*
same,Growth Inhibition (relative inhibitory activity),Med1-MB cells,*
"O=C(Nc1ccccc1F)c1c[nH]c(=O)n(Cc2ccc(F)cc2)c1=O [#3, 2,4-Dioxo-3-(4-fluorobenzyl)-N-(2-fluorophenyl)-1,2,3,4-tetrahydropyrimidine-5-carboxamide]",LDH Inhibition (relative inhibitory activity),LDHA enzyme,**
same,Growth Inhibition (relative inhibitory activity),Med1-MB cells,**
"O=C(Nc1ccccc1Cl)c1c[nH]c(=O)n(Cc2ccccc2)c1=O [#4, 2,4-Dioxo-3-benzyl-N-(2-chlorophenyl)-1,2,3,4-tetrahydropyrimidine-5-carboxamide]",LDH Inhibition (relative inhibitory activity),LDHA enzyme,***
same,Growth Inhibition (relative inhibitory activity),Med1-MB cells,***
"NC(=O)c1ccc(NC(=O)c2c[nH]c(=O)n(Cc3ccccc3)c2=O)cc1 [#6, 2,4-Dioxo-3-benzyl-N-(4-carboxamidophenyl)-1,2,3,4-tetrahydropyrimidine-5-carboxamide]",LDH Inhibition (relative inhibitory activity),LDHA enzyme,***
same,Growth Inhibition (relative inhibitory activity),Med1-MB cells,***
"COc1ccc(Cn2c(=O)[nH]cc(C(=O)Nc3ccccc3Cl)c2=O)cc1 [#7, 2,4-Dioxo-3-(4-methoxybenzyl)-N-(2-chlorophenyl)-1,2,3,4-tetrahydropyrimidine-5-carboxamide]",LDH Inhibition (relative inhibitory activity),LDHA enzyme,***
same,Growth Inhibition (relative inhibitory activity),Med1-MB cells,***
"NC(=O)C(=O)O [oxamate, reference compound]",concentration lowering in vitro proliferation,Med1-MB cells; 72 h,> 20 mM

# From patent US20240376057A1, “2,4-DIOXO-1,2,3,4-TETRAHYDROPYRIMIDINE DERIVATIVES AND THEIR USE IN THE TREATMENT OF TUMORS” (ISTITUTO PASTEUR ITALIA, priority 2021, published 2024)
